The values below come from US11191746B2, “Composition for inhibiting a growth of cancer stem cells comprising ciclesonide” (JEJU NATIONAL UNIVERSITY INDUSTRY-ACADEMIC COOPERATION …, priority 2016, dated 2021).

Molecules are shown by their SMILES.

Test [1] has as its system MCF-7 cells. In words: Breast cancer cell proliferation assay (MTS). The class given is cell-based, human. Conditions: MCF-7, 48 hours after treatment. How it is done: (§1) The proliferation rates of MCF-7 cells and MDA-MB-231 cells were measured using a CellTiter 96® aqueous one solution cell proliferation kit. The MCF-7 cells or the MDA-MB-231 cells were cultured in a 96-well plate for 48 hours in the presence of ciclesonide at concentrations of 0 μM, 5 μM, 10 μM, 20 μM, 40 μM, and 80 μM. In accordance with the manufacturer's protocol, absorbance at 490 nm was determined using a 96-well plate reader (Dynex Revelation, Dynex Ltd., Billingshurst, UK). Respective data was determined by measuring three sets.

The subject of test [2] is MDA-MB-231 cells. In words: Breast cancer cell proliferation assay (MTS). Type of test: cell-based, human. Conditions: MDA-MB-231, 48 hours after treatment. How it is done:
as §1

Test [3] has as its system A549 cells. In words: Clonogenic assay. The class given is cell-based, human. Conditions: A549, 10 μM. The protocol:
(§2) MDA-MB-231 cells or A549 cells were inoculated at low density in a 6-well plate, and, in a DMEM medium, the MDA-MB-231 cells were treated with different concentrations of ciclesonide, or the A549 cells were treated with 10 μM ciclesonide. After 24 hours, the medium was replaced with a new medium and cultured for […] to allow the cells to grow. The grown colonies were counted.

The test system of test [4] is MDA-MB-231 cells. In words: Clonogenic assay. The class given is cell-based, human. How it is done:
as §2

Test [5] relates to MCF-7 cell-derived mammospheres. In words: Mammosphere formation. Type of test: cell-based, human. The protocol:
(§3) Human breast cancer cells, MCF-7, were obtained from American Type Culture Collection (ATCC; Manassas, Va., USA). MCF-7 cells and MDA-MB-231 cells were cultured in Dulbecco's Modified Essential Medium (DMEM; Hyclone, Logan, Utah, USA) containing 10% fetal bovine serum (FBS; Hyclone), 100 U/ml of penicillin, and 100 μg/ml of streptomycin (Hyclone). The MCF-7 cells were maintained in a humidified incubator containing 5% CO2 at 37° C. The cells were plated in 10 cm culture dishes at a density of 1×10^6 cells. To establish primary mammospheres, single cell-suspended MCF-7 cells were inoculated into ultra-low attachment 6-well plates containing 2 ml of complete MammoCult™ medium (StemCell Technologies, Vancouver, BC, Canada) at a density of 3.5 to 4×10^4 cells/well. The complete MammoCult™ medium was supplemented with 4 μg/ml of heparin, 0.48 μg/ml of hydrocortisone, 100 U/ml of penicillin, and 100 μg/ml of streptomycin. The cells were incubated in a 5% CO2 incubator at 37° C. for 7 days.
(§4) On day 10 of culture, cell culture plates were placed on a scanner (Epson Perfection V700 PHOTO, Epson Korea, Co, Seoul, Korea) to obtain 8-bit gray scale images of mammospheres. The images were acquired using a NICE software program downloaded from ftp://ftp.nist.gov/pub/physics/mlclarke/NICE at a low resolution of 300 dpi. For counting, a desired number of rows and columns (e.g., 2×3 for a 6-well plate) were selected to generate ROIs and after selecting the elliptical setting of the NICE program, the individual ROIs were defined by adjusting the movement and size of the provided ROI shapes. The background signals of the images were negated using a threshold algorithm, and the selected images were automatically counted. To analyze the formation of mammospheres, mammosphere formation efficiency (MFE, %) was determined by the following equation: MFE (%)=the number of mammospheres per well/a total number of plated cells per well×100.

Test [6] deals with MDA-MB-231 cell-derived mammospheres. In words: Mammosphere formation. Type of test: cell-based, human. How it is done:
as §3, §4

For test [7], the system named is MCF-7 cells. In words: CD44 and CD24 expression flow cytometric analysis. Type of test: cell-based, human. Conditions: 24 hours, FACS. How it is done: The expression of CD44 and CD24 in MCF-7 cells was measured by FACS analysis. After isolating and harvesting cells using 1× trypsin/EDTA, one million cells were suspended, labeled with an FITC-conjugated anti-human CD44 antibody and a PE-conjugated anti-human CD24 antibody (BD Pharmingen, San Diego, Calif., USA), and incubated at 4° C. for 30 minutes. The cells were then washed three times with 1× PBS and analyzed by flow cytometry (Accuri C6, BD, San Diego, Calif., USA).

Test [8] concerns MCF-7 cells. In words: ALDEFLUOR analysis, breast cancer cells. The conditions noted are these: 24 hours. Type of test: cell-based, human. The protocol: An ALDEFLUOR analysis system provides a novel approach to the identification, evaluation, and isolation of CSCs based on the activity of aldehyde dehydrogenase (ALDH). BODIPY-aminoacetaldehyde as an active reagent was added to breast cancer cells or lung cancer cells, and converted into fluorescent BODIPY-aminoacetate by ALDH. Diethylaminobenzaldehyde (DEAB), which is an ALDH inhibitor, was used as a negative control. MCF-7 cells or A549 cells were treated with 10 μM or 20 μM ciclesonide for 24 hours, and the proportion of ALDH-positive cells was analyzed by ALDEFLUOR assay. ALDH-positive and negative cells were sorted by C6 Accuri flow cytometry (BD Bioscience).

The next test relates to IL-6. In words: Human inflammatory cytokine assay (CBA), mammosphere culture solution. Conditions: MDA-MB-231 mammosphere culture solution. The class given is cell-based. The protocol: Mixed capture beads were vortexed and 50 μl of beads were added to assay tubes. 50 μl of human inflammatory cytokine standard and the cultured tumorsphere solution were added to the assay tubes, and then mixed with a cytokine PE solution. After 3 hours, the mixed solution was washed and analyzed by flow cytometry (Accuri C6, BD, San Diego, Calif., USA).

Test [9] deals with A549 cells. In words: Lung cancer cell proliferation assay (MTS). Type of test: cell-based, human. Conditions: A549, 48 hours after treatment. How it is done: as §1
An experiment was performed in the same manner as in Example 10-1, except that A549 cells were used as lung cancer cells and treated with ciclesonide at concentrations of 0 μM, 10 μM, 20 μM, 40 μM, 80 μM, and 100 μM.

The subject of test [10] is A549 cell-derived tumorspheres. In words: Tumorsphere formation. The class given is cell-based, human. The conditions noted are these: A549 primary tumorspheres. How it is done: Human lung cancer cells, A549, were cultured under the same culture conditions as those for the breast cancer cells of Example 2-1. To establish primary tumorspheres, single cell-suspended A549 cells were inoculated into ultra-low attachment 6-well plates containing 2 ml of Cancer Stem Premium medium (ProMab Biotechnologies Inc, Richmond, Calif., USA) at a density of 5×10^4 cells/well. The cells were incubated in a 5% CO2 incubator at 37° C. for 10 days.
Lung cancer tumorspheres were counted in the same manner as in Example 3-1, and for the analysis of tumorsphere formation, tumorsphere formation efficiency (TFE, %) was determined by the following equation: TFE (%)=number of tumorspheres per well/total number of plated cells per well×100.

`CC(C)C(=O)OCC(=O)[C@@]12O[C@H](C3CCCCC3)O[C@@H]1C[C@H]1[C@@H]3CCC4=CC(=O)C=C[C@]4(C)[C@H]3[C@@H](O)C[C@@]12C` [ciclesonide]: the “concentration at which growth of the cell line was inhibited in a concentration-dependent manner” value in the test with MCF-7 cells [1] is no less than 10 µM; in the test on MDA-MB-231 cells [2] it was no less than 10 µM; with A549 cells [9] it was no less than 40 µM. Moreover, the colony formation result in the test on A549 cells [3] and with MDA-MB-231 cells [4] was “inhibited” each time. Also, the “growth of breast cancer stem cells” value in [5] (MCF-7 mammospheres, 10 μM) is listed as “significantly inhibited”; in [6] (MDA-MB-231 mammospheres, 10 μM), “significantly inhibited”. For the same molecule, the “size of the mammospheres” value in test [5] (MCF-7 primary mammospheres) and in test [6] (MDA-MB-231 primary mammospheres) was “reduced” throughout. In addition, the “reduction of the number of mammospheres” value in test [5] (MCF-7 primary mammospheres, 5 μM or 10 μM, 7 days) is reported as 90%; in test [6] (MDA-MB-231 primary mammospheres, 10 μM, 7 days), 90%. Further, the “subpopulation expressing CD44high/CD24low” value with MCF-7 cells [7] was “reduced”. The “proportion of ALDH-positive breast cancer cells” value with MCF-7 cells [8] is listed as “reduced”. Moreover, the “production level of secreted IL-6” value in the test with IL-6 is on record as “reduced”. Also, in test [10], the “size of the tumorspheres” value is listed as “significantly reduced”. Further, the “reduction of the number of tumorspheres” value in [10] (5 μM and 10 μM) is 90%.
